Each structure is given as a SMILES string.

One assay has as its target T1, Thermolysin (Bacillus thermoproteolyticus, UniProt P00800).
T1 sequence (P00800 233-548): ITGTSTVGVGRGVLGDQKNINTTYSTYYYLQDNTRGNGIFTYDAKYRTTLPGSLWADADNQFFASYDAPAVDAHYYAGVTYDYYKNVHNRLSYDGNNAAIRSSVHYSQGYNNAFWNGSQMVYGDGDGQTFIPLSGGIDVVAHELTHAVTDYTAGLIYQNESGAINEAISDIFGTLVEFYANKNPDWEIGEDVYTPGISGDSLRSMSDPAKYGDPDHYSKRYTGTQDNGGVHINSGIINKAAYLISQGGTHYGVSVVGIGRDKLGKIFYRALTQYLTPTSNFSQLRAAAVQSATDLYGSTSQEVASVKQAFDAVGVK
Kind of assay: Thermolysin inhibition assay with N-[3-[2-Furyl]acryloyl]-Gly-L-Leu-NH2 as substrate. The format is biochemical. Conditions: 0.1 M Tris-HCl pH 7.2, 25° C. The method, then: Thermolysin activity with or without inhibitor was measured using N-[3-[2-Furyl]acryloyl]-Gly-L-Leu-NH2 as substrate (Walsh, K. A. et al. Methods Enzymol.34:435 (1974; Nishino, N. et al. Biochemistry 17:2846 (1978). The substrate solution in 0.1 M Tris-HCl buffer (pH 7.2) containing 2% DMF was added to thermolysin in 0.1 M Tris-HCl, ph 7.2, containing 10 mM CaCl2 and the decrease in absorbance at 345 nm was monitored using a Hewlett-Packard diode array UV/VIS spectrophotometer at 25° C. Percent inhibition and/or K1 values were determined from Dixon plots (Dixon, M. Biochem, J. 55:70 (1953) at two different substrate concentrations.
The inhibitory activity of compound 20 and 30 toward thermolysin was determined under competitive inhibition conditions. Thermolysin activity with or without inhibitor was measured using N-[3-[2-Furyl]acryloyl]-Gly-L-Leu-NH2 as substrate (Walsh, K. A. et al. Methods Enzymol.34:435 (1974); Nishino, N. et al. Biochemistry 17:2846 (1978)).

Assay [1] concerns the target T2, human leukocyte elastase (HLE) (Homo sapiens, UniProt P08246).
T2 sequence (P08246 30-247 limits assumed): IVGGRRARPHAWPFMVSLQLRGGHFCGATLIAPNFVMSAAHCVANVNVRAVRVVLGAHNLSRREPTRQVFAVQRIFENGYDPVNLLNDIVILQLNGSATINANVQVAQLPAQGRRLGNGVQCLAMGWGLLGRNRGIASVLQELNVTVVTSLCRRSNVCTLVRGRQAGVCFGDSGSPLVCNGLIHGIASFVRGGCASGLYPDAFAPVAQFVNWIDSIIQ
Kind of assay: Human leukocyte elastase (HLE) inhibition assay, Dixon plot. Type of assay: biochemical. Conditions: competitive inhibition conditions, substrate MeOSuc-AAPV-pNA, 0.1 M HEPES pH 7.25, 25° C., read-out: K1 or % Inhibition (Ki), Elastase (HLE). An excerpt: Screening of compounds for protease activity is known in the art. The human leukocyte elastase (HLE), cathepsin G (Cat G) and proteinase 3 (PR3) assays have each been described in detail; see, Groutas et al. Biochemistry 36:4739 (1997). Chymase assay has also been previously reported; see, Schechter, et al., J. Biol. Chem. 268:23626 (1993).
The substrates and buffers used in the assay inhibition studies with human leukocyte elastase (HLE), cathepsin G (Cat G), proteinase 3 (PR3) (Groutas, W. C., et al., Biochemistry 36:4739 (1997) and chymase (Groutas, W. C. et al., Bioorg. Med. Chem. Lett. 9:2199 (1999) were as follows: HLE, MeOSuc-AAPV-pNA, 0.1 M HEPES buffer, pH, 7.25 in 1-5% DMSO; Cat G, Suc-AAPF-pNA, 0.1 M HEPES buffer, pH 7.5; PR3, Boc-L-Ala p-mitrophenyl ester, 0.1 M phosphate buffer, pH 6.5; chymase, Suc-AAPF-pNA, 0.45 Tris buffer, 1.8 M Na Cl, pH 8.03 and 2% DMSO. All assays were carried out at 25° C. and for all enzymes the absorbance was monitored at 410 nm, except PR 3 (348 nm).
The inhibitory activity of compound 15 toward HLE was determined under competitive inhibition conditions. (Dixon, M. Biochem. J. 20 55:70-71 (1953)). Human leukocyte elastase (HLE assay has been described in detail; see, Groutas et al. Biochemistry 36:4739 (1997).

Consider `CC(C)C[C@@H](C(=O)NO)N(Cc1ccccc1)S(N)(=O)=O` [Compound 40], for which the “K1 or % Inhibition (% inhibition), Thermolysin” value at Thermolysin (inhibitor concentration not given) was determined as 26% inhibition.
Broadly, the Ki is the dissociation constant of the complex between target and ligand, obtained from inhibition or displacement. In the case of `CN(C)S(=O)(=O)N(CC(=O)NO)Cc1ccccc1` [Compound 20, N^2-benzyl-N^2-[(dimethylamino)sulfonyl]-N^1-hydroxyglycinabmide], at Thermolysin (competitive inhibition conditions, Dixon plots at two substrate concentrations, read-out: K1 or % Inhibition (Ki), Thermolysin), the Ki was 1.2 µM.
Regarding `CC(C)CC(C=O)N(Cc1ccccc1)S(=O)(=O)N(C)C` (stereo not drawn) [Compound 15, N-benzyl-N-(1-formyl-3-methylbutyl)-N′,N′-dimethylfulfamide], the Ki in assay [1] was determined as 21 µM.

The values are drawn from patent US6495358B1, “Sulfamide and bis-sulfamide amino acid derivatives as inhibitors of proteolytic enzymes” (Wichita State University, priority 2000, dated 2002).
